{
  "source": "paper PMC4812144",
  "about": "“Flavonolignans As a Novel Class of Sodium Pump Inhibitors” (Frontiers in Physiology, 2016)",
  "key": {"[1]": {"assay": "Solubility (qualitative remarks)", "format": "physicochemical", "conditions": "NKA activity assay"}, "[2]": {"biological_target": "T1, Na+/K+-ATPase (NKA) (Sus scrofa, UniProt P05024)", "T1 construct": "The NKA was prepared from porcine kidney outer medulla; from tissue; host or cells: porcine kidney outer medulla", "assay": "Ouabain-sensitive ATPase activity of NKA (Baginsky assay)", "format": "biochemical, porcine", "conditions": "for n, Hill coefficient: fit of NKA inhibition curve to logistic function; for IC50: ouabain-sensitive ATPase activity, NKA from porcine kidney, 3 mM ATP, read-out: IC50 for inhibition of the NKA activity", "experimental": "The NKA was prepared from porcine kidney outer medulla using the method of Jorgensen and Klodos with some modifications (Jørgensen, [1988]; Klodos et al., [2002]; Kubala et al., [2014]). An isolated enzyme was pipetted into small aliquots and stored at −20°C in ISE buffer (25 mM imidazole, 250 mM sucrose, 1 mM EDTA, pH 7.4) containing SDS detergent. The molar concentration of isolated NKA was estimated using the Bradford method with consideration of MW(α + β) = 165,000 Da. The protein purity >90% was estimated from SDS-PAGE (Figure 2).\nThe measurements of NKA activity were performed using the Baginsky assay (Kubala et al., [2014]). The assay was performed in microwell plates in 4 replicates for each point and automated in the pipetting station Freedom EVO (Tecan, Switzerland).\n(§1) The reaction buffer was composed of 325 mM NaCl, 50 mM KCl, 7.5 mM MgCl2, and 75 mM imidazole, pH 7.2. In the experiments where the K^+-dependence was estimated, the KCl concentration is ranging from 0 to 100 mM. The NKA (0.1 mg/mL) isolated from porcine kidney was mixed with reaction buffer without ATP. All inhibitors were solubilized in methanol immediately before the measurement and then premixed with the reaction buffer to the required concentration. Subsequently, 10 μL of inhibitor solution was added into 20 μL of enzyme solution and incubated for 2 min. In the control sample, only 10 μL of reaction buffer without inhibitor was added including corresponding amount of methanol. The reaction was started by the addition of ATP solution (20 μL, 7.5 mM in the stock, the final concentration in the reaction was 3 mM). The reaction proceeded for 6 min at room temperature and then was stopped by addition of 75 μL of staining solution, which was composed of 160 mM ascorbic acid, 3.7% (v/v) acetic acid, 3% (w/v) SDS, and 0.5% ammonium molybdate. The staining reaction was stopped after another 8 min by adding 125 μL of solution composed of 0.9% (w/v) bismuth citrate, 0.9% (w/v) sodium citrate and 3.7% HCl.\nThe Baginsky method detects a product of ATP hydrolysis, inorganic phosphate, which interacts with ammonium molybdate. The reaction results in a color change, which can be monitored as a change of absorbance at 710 nm, and was measured using microplate reader Synergy Mx (BioTek, USA). The calibration line was determined using KH2PO4 solutions, in […] concentration range.\n(§2) The specific NKA activity is standardly estimated using the treatment by ouabain, which serves as a specific inhibitor of NKA. The ATPase activity decreases to less than 10% in the presence of 10 mM ouabain. This residual activity in the presence of ouabain was subtracted from the total estimated ATPase activity in ouabain-untreated samples, and all data are presented as the ouabain-sensitive ATPase activity. The IC50 values were obtained from fitting the data to the logistic function."}, "[3]": {"biological_target": "T1, Na+/K+-ATPase (NKA)", "assay": "K+-dependence of NKA activity (K+-dependent activation)", "format": "biochemical, porcine", "experimental": "as §1\n(§3) We have tested influence of these three species on the ouabain inhibition and K^+-dependence of NKA activation. None of the species substantially influenced the IC50 for ouabain or the K^+/ouabain antagonism (Figure 5). The NKA activity is K^+-dependent and it increased with increasing concentration of potassium with K0.5(K^+) = 4.2 ± 0.6 mM."}, "[4]": {"biological_target": "T1, Na+/K+-ATPase (NKA)", "assay": "K+/ouabain antagonism: ouabain inhibition of NKA activity with or without flavonolignan", "format": "biochemical, porcine", "conditions": "for K0.5(ouabain): in the presence of 40 μM flavonolignan; for IC50: K0.5(ouabain), no flavonolignan (row None)", "experimental": "as §1, §2, §3"}, "[5]": {"biological_target": "T2, large cytoplasmic segment C45 of NKA (C45 loop, residues L354-I777) (Mus musculus, UniProt Q8VDN2)", "T2 construct": "(His)6-tag (N); made in house; host or cells: E. coli BL21", "assay": "Fluorescence spectroscopy of interaction with isolated large cytoplasmic segment C45", "format": "binding", "conditions": "5 μM species; for Fluorescence intensity increase in the presence of C45: 5 μM C45, pH 7.4, excitation 380 nm", "experimental": "The large cytoplasmic segment connecting the transmembrane helices 4 and 5 (C45 loop, residues L354-I777 of the mouse brain sequence) with a (His)6-tag at the N-terminus was expressed in E. coli BL21 (Promega, USA) and purified using a Co^2+-based affinity resin (Clontech, USA) as described previously (Grycova et al., [2009]). Immediately after elution, the protein was dialyzed into 20 mM Tris, 140 mM NaCl, pH 7.4 buffer and stored at −20°C.\nSpectroscopic experiments were performed in 20 mM Tris, 140 mM NaCl, pH 7.4 buffer. SCH, DHSCH and DHSD as well as protein C45 were diluted to 5 μM concentration.\nFluorescence emission spectra were measured using Fluorolog-3 (Horiba Scientific, USA). The spectra were scanned with a step of 1 nm, both excitation- and emission bandpass 5 nm and integration time 1 s. For SCH, the excitation was 325 nm and emission was recorded in the 340–600 nm interval, for DHSCH and DHSD, the excitation wavelength was 380 nm and spectra were scanned in the 400–600 nm interval. Signal from pure buffer was subtracted as a background."}, "[6]": {"conditions": "in the presence of 40 μM flavonolignan"}, "[7]": {"conditions": "40 mM KCl (value in parentheses)"}},
  "data": [
    {"smiles": "COc1cc(C2Oc3cc(-c4oc5cc(O)cc(O)c5c(=O)c4O)ccc3OC2CO)ccc1O", "note": "(centres unmarked) [DHSB]", "values": [
      {"measurement": "Solubility limiting the examined concentration range", "setting": "[1]", "result": "lower solubility"},
      {"measurement": "n, Hill coefficient", "setting": "[2]", "result": "0.5 ± 0.1"},
      {"measurement": "IC50", "setting": "[2]", "result": "900 ± 800", "unit": "µM"}
    ]},
    {"smiles": "COc1cc(C2Oc3c(O)cc(-c4oc5cc(O)cc(O)c5c(=O)c4O)cc3C2CO)ccc1O", "note": "(centres unmarked) [DHSCH, dehydrosilychristin]", "values": [
      {"measurement": "K0.5(K+) for K+-dependent activation of NKA", "setting": "[3]; [6]", "result": "4 ± 1", "unit": "mM"},
      {"measurement": "K0.5(ouabain)", "setting": "[4]; 5 mM KCl", "result": "1.5 ± 0.5", "unit": "µM"},
      {"measurement": "K0.5(ouabain)", "setting": "[4]; [7]", "result": "24 ± 6", "unit": "µM"},
      {"measurement": "Fluorescence intensity increase in the presence of C45", "setting": "[5]", "result": "ca. 3 times"},
      {"measurement": "n, Hill coefficient", "setting": "[2]", "result": "0.8 ± 0.1"},
      {"measurement": "IC50", "setting": "[2]", "result": "38 ± 8", "unit": "µM"}
    ]},
    {"smiles": "COc1cc(C2C3C=C(c4oc5cc(O)cc(O)c5c(=O)c4O)C4C2COC4(O)C3=O)ccc1O", "note": "(centres unmarked) [DHSD, dehydrosilydianin]", "values": [
      {"measurement": "K0.5(K+) for K+-dependent activation of NKA", "setting": "[3]; [6]", "result": "3 ± 2", "unit": "mM"},
      {"measurement": "K0.5(ouabain)", "setting": "[4]; 5 mM KCl", "result": "3.3 ± 1.4", "unit": "µM"},
      {"measurement": "K0.5(ouabain)", "setting": "[4]; [7]", "result": "19 ± 7", "unit": "µM"},
      {"measurement": "Solubility limiting the examined concentration range", "setting": "[1]", "result": "lower solubility"},
      {"measurement": "Fluorescence intensity increase in the presence of C45", "setting": "[5]", "result": "three-fold"},
      {"measurement": "n, Hill coefficient", "setting": "[2]", "result": "0.6 ± 0.1"},
      {"measurement": "IC50", "setting": "[2]", "result": "36 ± 14", "unit": "µM"}
    ]},
    {"smiles": "O=c1c(O)c(-c2ccc(O)c(O)c2)oc2cc(O)cc(O)c12", "note": "[QUE, quercetin]", "values": [
      {"measurement": "IC50", "setting": "[2]", "result": "> 1000", "unit": "µM"}
    ]},
    {"smiles": "COc1cc(C2Oc3cc([C@H]4Oc5cc(O)cc(O)c5C(=O)[C@@H]4O)ccc3OC2CO)ccc1O", "note": "(some centres unmarked) [SB, silybin]", "values": [
      {"measurement": "Solubility limiting the examined concentration range", "setting": "[1]", "result": "lower solubility"},
      {"measurement": "IC50", "setting": "[2]", "result": "> 1000", "unit": "µM"}
    ]},
    {"smiles": "COc1cc(C2Oc3c(O)cc([C@H]4Oc5cc(O)cc(O)c5C(=O)[C@@H]4O)cc3C2CO)ccc1O", "note": "(some centres unmarked) [SCH, silychristin]", "values": [
      {"measurement": "K0.5(K+) for K+-dependent activation of NKA", "setting": "[3]; [6]", "result": "8 ± 5", "unit": "mM"},
      {"measurement": "K0.5(ouabain)", "setting": "[4]; 5 mM KCl", "result": "4.0 ± 1.7", "unit": "µM"},
      {"measurement": "K0.5(ouabain)", "setting": "[4]; [7]", "result": "18 ± 2", "unit": "µM"},
      {"measurement": "Fluorescence quantum yield increase in the presence of C45 compared to the free species", "setting": "[5]; 5 μM C45, pH 7.4", "result": "more than 1000 times"},
      {"measurement": "n, Hill coefficient", "setting": "[2]", "result": "0.6 ± 0.1"},
      {"measurement": "IC50", "setting": "[2]", "result": "110 ± 40", "unit": "µM"}
    ]},
    {"smiles": "COc1cc([C@@H]2[C@H]3CO[C@@]4(O)C(=O)[C@@H]2C=C([C@H]2Oc5cc(O)cc(O)c5C(=O)[C@@H]2O)[C@@H]34)ccc1O", "note": "[SD, silydianin]", "values": [
      {"measurement": "Solubility limiting the examined concentration range", "setting": "[1]", "result": "lower solubility"},
      {"measurement": "IC50", "setting": "[2]", "result": "> 1000", "unit": "µM"}
    ]},
    {"smiles": "O=C1c2c(O)cc(O)cc2OC(c2ccc(O)c(O)c2)C1O", "note": "(centres unmarked) [TAX, taxifolin]", "values": [
      {"measurement": "IC50", "setting": "[2]", "result": "> 1000", "unit": "µM"}
    ]},
    {"smiles": "C[C@@H]1O[C@@H](O[C@H]2C[C@@H](O)[C@]3(CO)[C@H]4[C@H](O)C[C@]5(C)[C@@H](C6=CC(=O)OC6)CC[C@]5(O)[C@@H]4CC[C@]3(O)C2)[C@H](O)[C@H](O)[C@H]1O", "note": "[ouabain, reference compound]", "values": [
      {"measurement": "K0.5(K+) for K+-dependent activation of NKA", "setting": "[3]; in the presence of ouabain", "result": "14.8 ± 0.1", "unit": "mM"},
      {"measurement": "IC50", "setting": "[4]; 5 mM KCl", "result": "2.6 ± 1.3", "unit": "µM"},
      {"measurement": "IC50", "setting": "[4]; [7]", "result": 23, "unit": "µM"},
      {"measurement": "remaining activity at 10000 µM", "setting": "[2]; read-out: ATPase activity remaining in the presence of ouabain", "result": "< 10", "unit": "%"}
    ]}
  ]
}
